Measured values reported in patent publication US20090061416A1, “Surfaces and methods for biosensor cellular assays” (priority 2007, published 2009).

Assays:
[1] = tested on: endogenous P2Y receptors in HEK 293 cells; assay: ATP-induced DMR signals of HEK293 cells on coated RWG biosensor surfaces; assay type: cell-based, human
Text: Three surface densities were individually prepared by slow evaporation of 0.0015%, 0.1% and 1.5 weight % gelatin solutions, as described above, covering the biosensor surfaces. The resultant respective gelatin surfaces were referred to as low-, medium-, and high-density gelatin surfaces, respectively. HEK293 cells were separately cultured onto these surfaces.
P2Y receptors belong to the family of G protein-coupled receptors. HEK 293 cells endogenously express several isoforms of P2Y receptors. […] The arrow (540) indicates when the stimulus, an ATP solution, was introduced.
FIGS. 6A and 6B show the reproducibility and robustness of a cell assay of the disclosure using HEK293 cells that were cultured on a low-density gelatin-coated 384-well Epic™ biosensor microplate. A 10 micromolar ATP solution was added to selected well of column 15 of the microplate. The ATP-induced DMR response signals within one column (16 wells) were recorded in real time in seconds and plotted in FIG. 6A. The amplitudes of the initial positive DMR (P-DMR) event (wavelength shift) of the ATP-induced DMR signals were plotted as a function of well numbers 1-16 in FIG. 6B. The assay Coefficient of Variability (CV), or reproducibility, was about 4%, indicating a relatively high reproducibility, with an average signal of 193 picometers (pm), and a standard deviation of 8 pm.
To covalently couple RGD-like peptides to the biosensor surface, the biosensor was coated sequentially with a thin layer of silicon oxide (about 3 nm), aminopropylsilane (about 1-3 nm), poly(ethylene-alt-maleic anhydride) (EMA) (forming polymeric clusters), and finally a RGD-like peptide (Gly-Arg-Gly-Asp-Ser, GRGDS). Specifically, a thin layer of silicon oxide was deposited onto the Corning Epic™ niobium oxide waveguide surface up to 3 nm. Afterwards, the biosensor was coated with an aminopropylsilane solution of about 0.1 vol/vol %, washed and dried, followed by the interaction with an EMA solution of about 0.01 wt/vol %, and washed and dried. Finally, a GRGDS solution was applied to the EMA biosensor surface. […]

CHO-KCNQ cells = assay: ATP-induced DMR signals of CHO-KCNQ cells on RWG biosensor; assay type: cell-based, Chinese hamster
Method: Referring to the Figures, FIGS. 1A and 1B show cross-sectional configurations of two examples of RWG biosensors used for living cell sensing. In FIG. 1A a cell (10) is directly cultured onto the unmodified or bare surface of the waveguide thin film (15) of a RWG biosensor (18) having a waveguide grating atop a substrate. In FIG. 1B a cell (10) is cultured onto the surface of an inorganic thin film (19) which has been previously deposited onto the surface of the waveguide thin film (15). Here a thin film of silicon oxide of about 1 nm to about 5 nm is directly deposited onto the surface of a waveguide thin film of niobium oxide by vapor deposition method. Each biosensor associated cell has an approximate penetration depth (20). […] CHO-KCNQ is an engineered CHO cell having over-expressed a potassium ion channel KCNQ2. FIGS. 2A and 2B compare the ATP-induced DMR signals, response units versus time, of CHO-KCNQ cells: The FIG. 2A cells were cultured on an unmodified or bare niobia surface of the waveguide thin film of a Corning® Epic™ RWG biosensor; and FIG. 2B cells were cultured on a biosensor having, for example, a discontinuous thin film modified waveguide surface of silicon dioxide particles. […]

[2] = tested on: intracellular protein kinase C (PKC) in Jurkat cells; assay: pseudo-RACK1-induced optical signals of Jurkat cells anchored on RWG biosensor surfaces; assay type: cell-based, human
Text: The Jurkat cells, which present antigens at the cell's surface, were contacted with four different surface types: a bare waveguide substrate having a thin layer of silicon oxide (i.e., SiOx/Nb2O5, uncoated biosensor substrate) (810), a SiOx/Nb2O5 surface having anti-human CD3 (anti-CD3) (820), a SiOx/Nb2O5 surface having amino-reactive polymer EMA coating (EMA) (830), and a SiOx/Nb2O5 surface having covalently coupled anti-human CD3 (i.e., anti-CD3-EMA) (840). The anti-CD3 surface was achieved by incubating a solution containing anti-human CD3 antibody (25 μg/ml) onto the bare SiOx/Nb2O5 surface for 1 hour, followed by washing and drying. The EMA surface was prepared as described above, i.e., by sequentially coating the bare SiOx/Nb2O5 surface with aminopropylsilane and then EMA. The anti-CD3/EMA surface was prepared by incubating anti-human CD3 (25 μg/ml) solution with the EMA surface for 1 hour, followed by blocking with ethanolamine at 1% for 1 hour. The Jurkat cells were incubated on either surface for about 2 hours before assays. The kinetic response, before and after the pseudo-RACK1 addition, was recorded in real time.
Pseudo-RACK1 is a peptide (OH-lys-lys-trp-lys-met-arg-arg-asn-gln-phe-trp-ile-lys-ile-gln-arg-cys----cys-ser-val-glu-ile-trp-asp-OH) and activates intracellular protein kinase C (PKC).

| Compound | amplitude of initial positive DMR (P-DMR) event, average signal ([1]; 10 micromolar ATP, HEK293 cells on low-density gelatin-coated 384-well Epic microplate, 16 wells (FIG. 6)) | ATP-induced DMR response intensity ([1]; 20 micromolar ATP, HEK293 cells on GRGDS-derivatized EMA surfaces made with 10, 30, 100, 250 micromolar GRGDS (FIG. 7)) | detection of ATP-induced DMR signals ([1]; HEK293 cells on low-, medium- and high-density gelatin-coated surfaces (FIG. 5)) | ATP-induced DMR signal, average signal (CHO-KCNQ cells; CHO-KCNQ cells cultured on discontinuous thin film of silicon dioxide particles on waveguide (FIG. 2B)) [pm] | ATP-induced DMR signal, average signal (CHO-KCNQ cells; CHO-KCNQ cells cultured on unmodified or bare niobia waveguide surface (FIG. 2A)) [pm] | optical signal after stimulation ([2]; 9 μM, Jurkat cells on anti-CD3, EMA and anti-CD3-EMA surfaces (FIG. 8A)) | optical signal after stimulation ([2]; Jurkat cells on bare SiOx/Nb2O5 surface (FIG. 8A)) |
| --- | --- | --- | --- | --- | --- | --- | --- |
| Nc1ncnc2c1ncn2[C@@H]1O[C@H](COP(=O)(O)OP(=O)(O)OP(=O)(O)O)[C@@H](O)[C@H]1O [ATP, adenosine triphosphate] | 193 picometers (pm) | increasing response intensity | Only the low-density gelatin-coated surface enabled the detection | 144 | 115 | – | – |
| OH-lys-lys-trp-lys-met-arg-arg-asn-gln-phe-trp-ile-lys-ile-gln-arg-cys----cys-ser-val-glu-ile-trp-asp-OH [pseudo-RACK1] | – | – | – | – | – | significant optical signals | did not led to any detectable optical signal |
